Like-named read-outs stand apart in the source and are kept apart here.
Key:
[1] = tested on: A. cepa root cells; conditions: for DNA damage as chromosomal aberrations in Allium root cells: 10.0 µM
Experimental: To detect micronuclei and chromosomal aberrations six equal-sized pre-germinated young bulbs per sample were exposed for 24 h to sample dilutions. The bulbs dedicated to the micronuclei test underwent an additional treatment in the saline solution for 44 h of recovery time to cover two rounds of mitosis so that damage induced in chromosomes during mitosis to be visible as micronuclei in interphase cells. Then all the roots were fixed in acetic acid and ethanol (1:3) for 24 h and lastly stored in 70% ethanol. The negative control was DMSO in Rank’s solution (the dose of DMSO corresponding to volume of samples) and positive control was maleic hydrazide (10^−2 M, 6 h exposure). […] All experiments were performed in duplicate.

[2] = tested on: A. flavus; test: microbe, parasite or virus in culture; type: cell-based, Aspergillus flavus
[3] = tested on: S. typhimurium TA98 and TA100 strains; test: Ames test, overall mutagenicity verdict in bacteria; conditions: TA98 and TA100, -S9 and +S9
[4] = tested on: A. cepa; test: A. cepa toxicity test (root length); type: in vivo, Allium cepa; conditions: in vivo
Experimental: A. cepa toxicity test: Twelve equal-sized young onion bulbs were exposed for 96 h in the dark to different concentrations of compounds dissolved in DMSO, changing the sample solution every day. […] Root macroscopic parameters such as turgescence, consistency, change in color and root tip shape, were used as toxicity indexes.

[5] = tested on: aflatoxin accumulation by A. flavus; test: microbe, parasite or virus in culture; type: cell-based, Aspergillus flavus
[6] = tested on: Hs27 cells; test: Cytotoxicity assay (CellTiter 96 AQueous One) on Hs27; type: cell-based, human; conditions: for viability: Hs27, 24 h, dose 0 = 100.00, read-out: Growth inhibition data; for GI50: Hs27 cells, 24 h treatment
Experimental: The best antifungal and/or antiaflatoxigenic compounds were tested to determine their cytotoxic activity against human normal cell lines deriving from lung (HFL1, ATCC and CCL-153), skin (Hs27, ATCC, CRL1634) and colon (Crl1790, ATCC, CCD 841 CoN) and a cell line deriving from a hematological tumor (U937, ATCC and CRL-3253). These different cell lines have been chosen to simulate the different human exposition routes to pesticide. Cell culture conditions have been previously reported. Compound cytotoxicity was determined using CellTiter 96® AQueous One Solution Cell Proliferation Assay (Promega Corporation, Madison, WI, USA). The very detailed protocol was described by Bartoli et al.. In brief, cells were seeded in a 96-well plate at a density of 5000 cells/well and after 24 h cells were treated with different concentrations of the compounds (0.5–1–5–10–50–100 µM). After the treatment period (24 h), the CellTiter Reagent was added to each well (20 µL/well) and the plate incubated for 4 h at 37 °C. The plate was then read at 485 nm in a multiwell plate reader (TECAN SpectraFluor Plus, Männedorf, Switzerland).

| Molecule | DNA damage as chromosomal aberrations in Allium root cells [1] | G.I. (%) (A. flavus growth inhibition) ([2]; 100 µM) | A.I. (%) (aflatoxin accumulation inhibition) ([5]; 50 µM) | A.I. (%) (aflatoxin accumulation inhibition) ([5]; 100 µM) | viability ([6]; 0.5 µM) [%] | viability ([6]; 1 µM) [%] | viability ([6]; 5 µM) [%] | viability ([6]; 10 µM) [%] | viability ([6]; 50 µM) [%] | viability ([6]; 100 µM) [%] | GI50 [6] [µM] | also measured |
| --- | --- | --- | --- | --- | --- | --- | --- | --- | --- | --- | --- | --- |
| O=Cc1ccc2c(c1)C(=O)c1ccccc1C2=O [2‐Formylanthraquinone] | induced DNA damage as chromosomal aberrations |  |  |  |  |  |  |  |  |  |  | inhibition at 100 µM ([2]; Aspergillus flavus, 100 µM, read-out: G.I. (%) (A. flavus growth inhibition)): 58% |
| NC(=S)NNC(=O)c1ccc2c(c1)C(=O)c1ccccc1C2=O [Anthraquinone‐2‐carbonyl‐1‐thiosemicarbazide] |  | 58,0% |  |  |  |  |  |  |  |  |  | mutagenicity in bacteria [3]: slight mutagenic activity |
| O=C(O)c1ccc2c(c1)C(=O)c1ccccc1C2=O [Anthraquinone‐2‐carboxylic acid] | induced DNA damage as chromosomal aberrations |  | 56,0% | 80,0% |  |  |  |  |  |  |  | effect on A. cepa root length [4]: reduction of A. cepa root length |
| CN(N=CC=Cc1ccccc1)C(N)=S [Cinnamaldehyde 2‐methyl thiosemicarbazone] | induced DNA damage as chromosomal aberrations |  |  | 64,0% |  |  |  |  |  |  |  |  |
| CN(C)C(=S)NN=CC=Cc1ccccc1 [Cinnamaldehyde 4,4‐dimethyl thiosemicarbazone] |  |  | 100% | 100% |  |  |  |  |  |  |  | mutagenicity in bacteria [3]: slight mutagenic activity; effect on A. cepa root length [4]: reduction of A. cepa root length |
| CCCCC(=NNC(N)=S)c1ccccc1 [Valerophenone thiosemicarbazone] | induced DNA damage as chromosomal aberrations | 54,0% |  | 55,0% |  |  |  |  |  |  |  |  |
| CN(C)C(=S)NN=Cc1ccccc1 [benzaldehyde 4,4'‐dimethyl thiosemicarbazone] |  |  | 76,0% | 90,0% |  |  |  |  |  |  |  | mutagenicity in bacteria [3]: without showing any mutagenic effect; mitotic index / interference with cell division ([1]; respect to the control): lower mitotic index |
| Bis(2-acetylfuranthiosemicarbazonato) copper(II) [2-acfurTS-Cu] |  | 63,4% |  | 65,7% | 92.8 ± 5.53 | 99.4 ± 4.63 | 98.9 ± 12.1 | 100 ± 5.93 | 36.9 ± 6.49 | 35.6 ± 1.89 | 39 | impact on fungal growth ([2]; 10 to 100 µM, complexes compared with their ligand): higher fungistatic activity |
| Bis(2-acetylfuranthiosemicarbazonato) zinc(II) [2-acfurTS-Zn] |  |  |  |  | 100 ± 7.72 | 100 ± 7.88 | 100 ± 7.7 | 100 ± 12.7 | 16.5 ± 0.62 | 15.2 ± 0.73 | 30.5 | impact on fungal growth compared with the ligand ([2]; 100 µM): slightly less effective |
| Bis(2-acetylthiophenethiosemicarbazonato) copper(II) [2-actpTS-Cu] |  |  | 56,5% | 88,6% | 90.7 ± 4.69 | 87.1 ± 3.53 | 72.1 ± 3.35 | 16.2 ± 0.84 | 14.6 ± 0.85 | 15 ± 0.2 | 6.2 |  |
| Bis(2-acetylthiophenethiosemicarbazonato) zinc(II) [2-actpTS-Zn] |  |  | 60,4% | 85,4% | 91.6 ± 7.33 | 94.3 ± 2.25 | 81.9 ± 5.34 | 60.1 ± 1.57 | 15.5 ± 0.56 | 16 ± 1.39 | 15.4 |  |
| Zn(II) Cuminaldehyde bisthiosemicarbazonate |  | 60,3% | 97,1% | 100% |  |  |  |  |  |  |  | G.I. (%) (A. flavus growth inhibition) ([2]; 50 µM): 56,0% |
